The subject of the assay is HIV-1RF. The assay is described as follows: XTT cytoprotection assay (antiviral activity). It counts as cell-based. A general note: Formazan colour is commonly taken as a measure of viable cells.

Molecules are shown by their SMILES.

Consider `O=C(O)CCCC[n+]1ccccc1.[Br-]` [Compound 53, 5-pyridiniovaleric acid], for which the “antiviral activity (in words)” value is “without antiviral activity”. Under “Human immunodeficiency virus 1, Table 6, read-out: EC50 %”, the EC50 is greater than 316 µM.

As a reminder, the EC50 is the concentration at which the effect is half-maximal.
